Drawing on patent US11857635B2, “Linker compound, polyethylene glycol-linker conjugate and derivative thereof and polyethylene glycol-linker-drug conjugate” (JENKEM TECHNOLOGY CO., LTD. (TIANJIN), priority 2017, dated 2024), this text covers Anti-tumor effect for 1 compound.

This test concerns HCT116 tumor. Description: Tumor growth inhibition in HCT116 tumor heterotopic transplantation mouse model. In kind it is in vivo. The note with it: HCT116 subcutaneous tumor in mice, FIG. 6. The method, then:
The experiment was carried out to detect a tumor growth inhibition effect of a drug on the HCT116 tumor heterotopic transplantation mouse model.
G2: positive drug adriamycin (commercially available); and
G3: 4arm PEG-L5-Dox (prepared in Example 22).
An original culture solution was removed by suction after HCT116 cells (commercially available) were received, and 10 mL of fresh culture solution was added. The cells were collected and passaged when 90% of the cells were converged. After the culture solution was removed, 10 ml of EDTA/PBS solution was added and placed at room temperature for 5 minutes, and then the EDTA/PBS solution was removed by suction. […] The cells was counted with a counting plate and diluted with DMEM containing 10% FBS. […]
The cell suspension was changed in advance when it was detected that 80% of the cells were converged on the inoculation day of the cells. […] The cells were counted with a counting plate and diluted with PBS to a concentration of 2*10^7 cells/mL, and then the cells were placed on ice until inoculation.
HCT116 cells were subcutaneously inoculated in a right front axilla of a mouse. […] Tumor volumes were measured twice a week after inoculation, and when an average tumor volume reached 100 to 200 mm^3, 18 mice with similar tumor sizes were selected and randomly divided into 3 groups with 6 mice in each group. […]

With `COc1cccc2c1C(=O)c1c(O)c3c(c(O)c1C2=O)C[C@@](O)(C(=O)CO)C[C@@H]3O[C@H]1C[C@H](N)[C@H](O)[C@H](C)O1` [adriamycin], the Anti-tumor effect result is “obvious anti-tumor effects”.
